Laboratory results taken from patent US8377918B2 (ACC Therapeutics Inc, priority 2005, dated 2013).

What was measured:
PC-3 cells = test: MTT cell proliferation assay, PC-3 prostate cancer cells; format: cell-based, human; conditions: 24 h
Procedure: FIG. 8. […] Prostate cancer cells PC-3 and DU145 were seeded in 96-well plates at 1×10^4 cells/well. […] The cell proliferation was assayed by culturing the cells for 24 h, then adding 10 μl of MTT reagent with incubation for 2 h. The reaction was stopped by adding 100 μl of solubilization solution. The relative cell proliferation was obtained by the reading at 590 nm which was recorded in a spectrophotometer, and normalized to the value of control.
FIG. 9. […] A, Cisplatin-resistant ovarian cancer cell line A2780/CP70, and B, prostate cancer cells PC-3 were seeded in 96-well plates at 1×10^4 cells/well and incubated overnight.
FIG. 17. […] A, the prostate cancer cells PC-3 and DU145; B, colon cancer cells Colo-205 and HCT-116; C, lung cancer cells A549 and H460 cells were plated at 1×10^4 cells per well in a 96 well plate in 100 μl of media.
FIG. 18. […] A and B, the prostate cancer cells PC-3 and DU145; C, colon cancer cells Colo-205 and HCT-116; D, lung cancer cells A549 and H460 cells were plated at 1×10^4 cells per well in a 96 well plate in 100 μl of media. […] The cell proliferation was analyzed by MTT assay.
FIG. 19. […] A, prostate cancer cells PC-3; and B, DU145 cells were plated at 1×10^4 cells per well in a 96 well plate in 100 μl of media. […] Cell proliferation was examined by MTT assay.
FIG. 23. […] Cell proliferation was examined by MTT assay.

Colo-205 cells = test: MTT cell proliferation assay, Colo-205 colon cancer cells; format: cell-based, human; conditions: Colo-205, apigenin alone, 24 h
Procedure: FIG. 17. […] A, the prostate cancer cells PC-3 and DU145; B, colon cancer cells Colo-205 and HCT-116; C, lung cancer cells A549 and H460 cells were plated at 1×10^4 cells per well in a 96 well plate in 100 μl of media. […] FIG. 20. […] A, the prostate cancer cells PC-3 and DU145; B, colon cancer cells Colo-205 and HCT-116; C, lung cancer cells A549 and H460 cells were plated at 1×10^4 cells per well in a 96 well plate. […] Cell proliferation was examined by MTT assay. […] FIG. 22. […] A, colon cancer cells Colo-205 and HCT-116; B, lung cancer cells A549 and H460 cells were plated at 1×10^4 cells per well in a 96 well plate the day before the treatment. […] Cell proliferation was examined by MTT assay. […] FIG. 24. […] The IC50 values for inhibiting cell proliferation were calculated from cell proliferation assay as described above.

H460 cells = test: MTT cell proliferation assay, H460 lung cancer cells; format: cell-based, human; conditions: H460, apigenin alone, 24 h
Procedure: FIG. 17. […] A, the prostate cancer cells PC-3 and DU145; B, colon cancer cells Colo-205 and HCT-116; C, lung cancer cells A549 and H460 cells were plated at 1×10^4 cells per well in a 96 well plate in 100 μl of media. […] FIG. 18. […] A and B, the prostate cancer cells PC-3 and DU145; C, colon cancer cells Colo-205 and HCT-116; D, lung cancer cells A549 and H460 cells were plated at 1×10^4 cells per well in a 96 well plate in 100 μl of media. […] The cell proliferation was analyzed by MTT assay. […] FIG. 22. […] A, colon cancer cells Colo-205 and HCT-116; B, lung cancer cells A549 and H460 cells were plated at 1×10^4 cells per well in a 96 well plate the day before the treatment. […] Cell proliferation was examined by MTT assay. […] FIG. 25.

normal human cells = test: Apoptosis of normal human cells (GM847 fibroblasts); format: cell-based; conditions: at up to 40 μM apigenin
Procedure: (§1) FIG. 1. […] (A) A2780/CP70 cells and human fibroblast GM847 cells were seeded in 96-well plate at 4×10^3 cells per well and incubated overnight. […] The cells were incubated for 24 h. Cell proliferation was determined by MTT reduction. […] Cells were trypsinized, harvested, washed once with PBS buffer, and stained using the Annexin-V-Folus Kit as per the manufacture's instructions. […] After incubation, all cells were collected and total DNA was isolated. Eight (8) μg of DNA was resolved on 1.8% agarose gel. […] (D) Treatment of GM847 cells was the same as that of 5D. […] Cleavage of caspase-3 and PARP was detected by western-blot.

[1] = tested on: human fibroblast GM847 cells; test: MTT proliferation, human fibroblast GM847 cells; format: cell-based; conditions: same experimental conditions as cancer cells, 24 h
Procedure: as §1

A2780/CP70 tumors [2] = test: Secondary tumor growth in chicken embryos; format: in vivo, chicken embryo; conditions: 7.5 μM apigenin, 9 days
Procedure: FIG. 2. […] Ovarian cancer cells A2780/CP70 were planted into 9-days old fertilized chicken embryos and incubated for 9 days to allow the tumor formation. The formed tumors were harvested and cut into pieces of 9-10 mg weight, and immediately implanted into another 9-day old fertilized chicken embryo and incubated for 9 days. […] In 9 days, the secondary tumor was cut and weighed.

A2780/CP70 tumors [3] = test: New blood vessel formation in tumors on CAM; format: in vivo, chicken embryo; conditions: 15 μM apigenin, 100 h
Procedure: FIG. 7. […] A2780/CP70 ovarian cancer cells were mixed with Matrigel and implanted onto the chorioallantoic membrane (CAM) of a 9-day old embryo. In 100 h, the tumor was cut off and the newly-formed blood vessels on the back of the tumor were determined.

[4] = tested on: VEGF expression in OVCAR-3 cells; test: VEGF ELISA of supernatants, OVCAR-3; format: cell-based, human; conditions: OVCAR-3, 15 h
Procedure: FIG. 6. […] OVCAR-3 and A2780/CP70 cells were plated in 12-well plates and cultured to 90% confluence. […] The concentrations of VEGF in the supernatants were determined by ELISA method as described in Materials and Methods. The data are mean±SE from three independent experiments and each experiment was performed with triplicate cultures.

A549 tumors = test: A549 tumor growth in nude mice; format: in vivo; conditions: 3 mg/kg intraperitoneal three times a week, day 40
Procedure: FIG. 15. […] Each treatment group contained 10 mice. […] The mice were euthanized on day 40. A, representative tumors from the control and apigenin-treated groups. Scale bar, 1 cm. B, tumor volumes were measured by the width and length of tumors from 10 mice in each treatment when tumors were visible. The mean±S.D. were obtained from 10 mice. C, the tumors were removed from mice, measured by the width and length, and analyzed as above. D, the mean±S.D. of the tumor weight. *, significant difference when compared with the solvent control (p<0.05).

Compound: O=c1cc(-c2ccc(O)cc2)oc2cc(O)cc(O)c12 [apigenin, 4′,5,7,-trihydroxyflavone]
- effect on sensitivity to etoposide treatment (PC-3 cells; PC-3, 15 μM apigenin): increased the sensitivity
- effect on cell proliferation (PC-3 cells; PC-3, apigenin alone): inhibited
- effect on cell proliferation (Colo-205 cells): inhibited the proliferation
- effect on cell proliferation (H460 cells): inhibited the proliferation
- induction of apoptosis of normal human cells (normal human cells): did not induce apoptosis
- effect on human normal fibroblast cells [1]: little effects
- effect on tumor growth (secondary tumor weight) (A2780/CP70 tumors [2]): inhibited tumor growth
- effect on new blood vessel formation (angiogenesis) in tumors (A2780/CP70 tumors [3]): inhibited new blood vessel formation
- effect on expression of VEGF [4]: inhibited the expression of VEGF
- effect on tumor growth in vivo (A549 tumors): inhibited tumor growth in vivo
